Measured values as given in US9255094B2, “Pyrido[4,3-B]indoles and methods of use” (Medivation Technologies, Inc., priority 2009, dated 2016).

Columns and labels:
[1] = molecular target: T1, human recombinant adrenergic α2A receptor (Homo sapiens, UniProt P08913); experiment: Adrenergic α2A radioligand binding assay ([3H]MK-912); conditions: compound at 0.1 μM; 1 nM [3H]MK-912; insect Sf9 cells; read-out: Percent Inhibition of ligand binding, Adrenergic (0.1 μM) a2A
T1 construct: expressed in transfected cells; host or cells: insect Sf9 cells
T1 sequence (P08913 1-465): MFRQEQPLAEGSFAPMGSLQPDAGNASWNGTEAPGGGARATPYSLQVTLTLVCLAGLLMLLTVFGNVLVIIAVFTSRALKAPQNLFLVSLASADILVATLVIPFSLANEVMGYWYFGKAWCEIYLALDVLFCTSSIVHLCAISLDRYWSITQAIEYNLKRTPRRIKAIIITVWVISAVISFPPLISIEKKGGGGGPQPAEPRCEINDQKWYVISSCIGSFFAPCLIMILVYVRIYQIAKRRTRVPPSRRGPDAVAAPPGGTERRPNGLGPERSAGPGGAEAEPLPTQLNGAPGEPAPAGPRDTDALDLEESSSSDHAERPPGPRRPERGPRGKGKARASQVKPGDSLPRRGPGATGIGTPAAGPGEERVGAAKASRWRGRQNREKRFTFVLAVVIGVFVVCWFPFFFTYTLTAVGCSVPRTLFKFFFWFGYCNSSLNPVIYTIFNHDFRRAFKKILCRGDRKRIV
Method: To evaluate in radioligand binding assays the activity of compounds of the invention, human recombinant adrenergic α2A receptor expressed in insect Sf9 cells (Uhlen S et al. J. Pharmacol. Exp. Ther. 271:1558, 1994) in a modified Tris-HCl buffer (50 mM Tris-HCl, pH 7.4, 12.5 mM MgCl2, 2 mM EDTA) was used. Compounds of invention were incubated with 1 nM [^3H]MK-912 for 60 min at 25° C. MK912 is (2S-trans)-1,3,4,5′,6,6′,7,12b-octahydro-1′,3′-dimethyl-spiro[2H-benzofuro[2,3-a]quinolizine-2,4′(1′H)-pyrimidin]-2′(3′H)-one hydrochloride Non-specific binding was estimated in the presence of 10 μM WB-4101 (2-(2,6-dimethoxyphenoxyethyl)aminomethyl-1,4-benzodioxane hydrochloride). Receptor proteins were filtered and washed, the filters were then counted to determine [^3H]MK-912 specifically bound.

[2] = molecular target: T2, human recombinant serotonin (5-Hydroxytryptamine) 5-HT2C receptor (Homo sapiens, UniProt P28335); experiment: Serotonin 5-HT2C radioligand binding assay ([3H]Mesulergine); conditions: compound at 0.1 μM; 1 nM [3H]Mesulergine; CHO-K1 cells; read-out: Percent Inhibition of ligand binding, Serotonin (0.1 μM) 5-HT2C
T2 construct: expressed in transfected cells; host or cells: Chinese hamster ovary (CHO-K1) cells
T2 sequence (P28335 33-458): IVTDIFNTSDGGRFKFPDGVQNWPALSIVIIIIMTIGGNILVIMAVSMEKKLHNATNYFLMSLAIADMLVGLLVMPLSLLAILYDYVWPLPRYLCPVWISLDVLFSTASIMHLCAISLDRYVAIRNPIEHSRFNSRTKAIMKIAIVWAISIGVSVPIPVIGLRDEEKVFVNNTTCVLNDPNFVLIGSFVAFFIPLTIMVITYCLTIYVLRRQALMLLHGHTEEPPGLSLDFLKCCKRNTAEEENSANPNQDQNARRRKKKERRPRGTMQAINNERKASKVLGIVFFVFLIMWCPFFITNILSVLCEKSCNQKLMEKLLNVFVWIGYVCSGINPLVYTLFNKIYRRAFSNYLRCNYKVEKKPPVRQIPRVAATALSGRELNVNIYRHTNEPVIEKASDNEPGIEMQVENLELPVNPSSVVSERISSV
Method: Compounds of the invention were incubated with 1 nM [^3H]Mesulergine for 60 min at 25° C. Non-specific binding was estimated in the presence of 1 μM Mianserin. Receptor proteins were filtered and washed, the filters were then counted to determine [^3H]Mesulergine specifically bound. Compounds were screened at 1 μM or lower, using 1% DMSO as vehicle. Biochemical assay results are presented as the percent inhibition of specific binding in Table 4.

[3] = molecular target: human recombinant serotonin (5-Hydroxytryptamine) 5-HT7 receptor (Homo sapiens, UniProt P34969); experiment: Serotonin 5-HT7 radioligand binding assay ([3H]LSD); conditions: compound at 0.1 μM; 5.5 nM [3H]LSD; CHO cells; read-out: Percent Inhibition of ligand binding, Serotonin (0.1 μM) 5-HT7
Method: Compounds of invention were incubated with 5.5 nM [^3H] Lysergic acid diethylamide (LSD) for 2 h at 25° C. […] Receptor proteins were filtered and washed, the filters were then counted to determine [^3H]LSD specifically bound. Compounds were screened at 1 μM or lower, using 1% DMSO as vehicle. Biochemical assay results are presented as the percent inhibition of specific binding in Table 4.

[4] = molecular target: T3, human recombinant adrenergic α2C receptor (Homo sapiens, UniProt P18825); experiment: Adrenergic α2C radioligand binding assay ([3H]MK-912); conditions: compound at 0.1 μM; 1 nM [3H]MK-912; insect Sf9 cells; read-out: Percent Inhibition of ligand binding, Adrenergic (0.1 μM) a2C
T3 construct: expressed in transfected cells; host or cells: insect Sf9 cells
T3 sequence (P18825 1-462): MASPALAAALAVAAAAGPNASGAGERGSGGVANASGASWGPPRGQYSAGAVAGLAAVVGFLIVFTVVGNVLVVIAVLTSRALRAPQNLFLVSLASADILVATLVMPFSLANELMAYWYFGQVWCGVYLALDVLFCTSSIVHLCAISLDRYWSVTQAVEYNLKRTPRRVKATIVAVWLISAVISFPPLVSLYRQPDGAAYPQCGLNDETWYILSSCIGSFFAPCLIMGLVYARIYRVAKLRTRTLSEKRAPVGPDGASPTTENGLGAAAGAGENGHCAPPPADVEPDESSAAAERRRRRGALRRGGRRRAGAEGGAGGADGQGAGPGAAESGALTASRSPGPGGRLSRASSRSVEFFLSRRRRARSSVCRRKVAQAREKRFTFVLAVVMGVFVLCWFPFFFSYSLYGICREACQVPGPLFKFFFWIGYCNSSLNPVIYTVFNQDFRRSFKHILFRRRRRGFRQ
Method: To evaluate in radioligand binding assays the activity of compounds of the invention, human recombinant adrenergic α2C receptor expressed in insect Sf9 cells (Uhlen S et al. J. Pharmacol. Exp. Ther. 271:1558, 1994) in a modified Tris-HCl buffer (50 mM Tris-HCl, pH 7.4, 12.5 mM MgCl2, 2 mM EDTA) is used. Compounds of the invention are incubated with 1 nM [^3H]MK-912 for 60 min at 25° C. Non-specific binding is estimated in the presence of 10 μM WB-4101. Receptor proteins are filtered and washed, the filters are then counted to determine [^3H]MK-912 specifically bound. Compounds are screened at 1 μM or lower, using 1% DMSO as vehicle. Compounds of the invention are tested in this biochemical assay and percent inhibition of specific binding is determined.

human recombinant serotonin (5-Hydroxytryptamine) 5-HT7 receptor, sequence (P34969 whole entry): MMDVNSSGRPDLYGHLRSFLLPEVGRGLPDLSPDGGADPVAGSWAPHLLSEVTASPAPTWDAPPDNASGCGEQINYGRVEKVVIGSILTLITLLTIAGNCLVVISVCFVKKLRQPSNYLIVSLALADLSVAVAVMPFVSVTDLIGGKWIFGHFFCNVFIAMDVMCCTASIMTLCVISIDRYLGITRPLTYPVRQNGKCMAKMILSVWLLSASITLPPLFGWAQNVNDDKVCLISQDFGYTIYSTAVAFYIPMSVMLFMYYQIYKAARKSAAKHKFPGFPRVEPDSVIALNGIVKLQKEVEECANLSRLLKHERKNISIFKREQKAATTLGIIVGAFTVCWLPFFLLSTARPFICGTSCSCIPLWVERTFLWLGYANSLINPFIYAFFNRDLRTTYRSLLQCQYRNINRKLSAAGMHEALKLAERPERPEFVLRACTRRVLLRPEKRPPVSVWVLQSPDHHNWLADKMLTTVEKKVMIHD

| Structure (SMILES) | inhibition at 0.1 µM [1] | inhibition at 0.1 µM [2] | inhibition at 0.1 µM [3] | inhibition at 0.1 µM [4] |
| --- | --- | --- | --- | --- |
| CC[C@](O)(Cn1c2c(c3cc(C)ccc31)CN(C)CC2)c1ccncc1 [Compound 1-63, (R)-1-(2,8-Dimethyl-3,4-dihydro-1H-pyrido[4,3-b]indol-5(2H)-yl)-2-(pyridine-4-yl)butan-2-ol] | 12% | 25% | 25% | 4% |
| CC[C@](O)(Cn1c2c(c3cc(C)ccc31)CN(C)CC2)c1ccc(F)cc1 [Compound 1-60, (R)-1-(2,8-Dimethyl-3,4-dihydro-1H-pyrido[4,3-b]indol-5(2H)-yl)-2-(4-fluorophenyl)butan-2-ol] | 3% | 67% | 16% | 9% |
| CCCC[C@](O)(Cn1c2c(c3cc(Cl)ccc31)CN(C)CC2)c1ccc(F)cc1 [Compound 1-61, (R)-1-(8-Chloro-2-methyl-3,4-dihydro-1H-pyrido[4,3-b]indol-5(2H)-yl)-2-(4-fluorophenyl)hexan-2-ol] | -7% | 88% | -12% | 11% |
| Cc1ccc2c(c1)c1c(n2CCc2ccc(C)nc2)CCN(CC(F)(F)F)C1 [Compound 1-65, 8-methyl-5-(2-(6-methylpyridin-3-yl)ethyl)-2-(2,2,2-trifluoroethyl)-2,3,4,5-tetrahydro-1H-pyrido[4,3-b]indole] | 6% | 6% | -15% | -1% |
| CC[C@@](O)(Cn1c2c(c3cc(C)ccc31)CN(C)CC2)c1ccc(F)cc1 [Compound 1-66, (S)-1-(2,8-dimethyl-3,4-dihydro-1H-pyrido[4,3-b]indol-5(2H)-yl)-2-(4-fluorophenyl)butan-2-ol] | 29% | 84% | 19% | 18% |
| CC[C@@](O)(Cn1c2c(c3cc(C)ccc31)CN(C)CC2)c1ccncc1 [Compound 1-62, (S)-1-(2,8-Dimethyl-3,4-dihydro-1H-pyrido[4,3-b]indol-5(2H)-yl)-2-(pyridine-4-yl)butan-2-ol] | 10% | 33% | 30% | -5% |
